The values that follow come from ChEMBL document CHEMBL4602606, “Differentiating the Pharmacodynamics and Toxicology of Macrolide and Ketolide Antibiotics” (J Med Chem, 2020).

Values after ≈ are worked out from the molar mass of the structure shown.

One data set relates to Haemophilus influenzae. The data set can be described thus: Antibacterial activity against Haemophilus influenzae. The format is functional.
Data set [1] in a line: Maximum serum concentration in human at 500 mg, po measured within 2 hrs. The format is ADME, organism-based. Further details: dose 500 mg, route oral. The settings on record: in vivo.
The nature of data set [2]: Terminal half life in human. The format is ADME. The settings on record: read-out: beta t1/2.
Data set [3] is described as follows: Protein binding in plasma (unknown origin). The format is ADME, cell-free. The settings on record: read-out: PPB.
Data set [4] in a line: Maximum serum concentration in human at 500 mg, po. The format is ADME. Further details: dose 500 mg, route oral.
For data set [5], the system named is Streptococcus pneumoniae. The data set can be described thus: Antibacterial activity against erythromycin-susceptible Streptococcus pneumoniae. The format is functional.
In data set [6] the test system is Streptococcus pneumoniae. Put plainly: Antibacterial activity against erythromycin-resistant Streptococcus pneumoniae. The format is functional.
The nature of data set [7]: Inhibition of human nAChR expressed in human TE671 cells assessed as reduction in nicotine-induced current response by whole-cell patch-clamp method. The format is cell-based. The settings on record: TE-671. For orientation: The patch-clamp technique gives a direct electrical read-out from membranes.
For data set [8], the target named is Neuronal acetylcholine receptor; alpha3/beta4 (Homo sapiens, UniProt P30926+P32297). The data set can be described thus: Inhibition of human alpha3beta4 nAChR assessed as […] in acetylcholine-induced normalized current at 2 uM (reference value: 78.5 +/- 10 uM). The format is protein-complex assay.
Chain of Neuronal acetylcholine receptor; alpha3/beta4 (P30926 whole entry): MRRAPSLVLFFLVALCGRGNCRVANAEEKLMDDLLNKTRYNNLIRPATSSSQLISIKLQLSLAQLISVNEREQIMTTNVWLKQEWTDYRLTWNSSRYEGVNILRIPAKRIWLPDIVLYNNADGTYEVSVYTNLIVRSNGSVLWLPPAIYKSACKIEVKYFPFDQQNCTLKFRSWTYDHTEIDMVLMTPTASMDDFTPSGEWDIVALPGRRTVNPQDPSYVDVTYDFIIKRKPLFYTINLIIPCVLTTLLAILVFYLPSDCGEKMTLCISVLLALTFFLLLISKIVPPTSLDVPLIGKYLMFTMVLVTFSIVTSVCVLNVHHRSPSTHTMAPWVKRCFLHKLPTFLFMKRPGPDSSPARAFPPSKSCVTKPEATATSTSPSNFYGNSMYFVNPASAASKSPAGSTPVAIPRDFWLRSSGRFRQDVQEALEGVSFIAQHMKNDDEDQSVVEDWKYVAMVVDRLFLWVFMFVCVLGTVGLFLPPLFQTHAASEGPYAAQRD
Chain of Neuronal acetylcholine receptor; alpha3/beta4 (P32297 whole entry): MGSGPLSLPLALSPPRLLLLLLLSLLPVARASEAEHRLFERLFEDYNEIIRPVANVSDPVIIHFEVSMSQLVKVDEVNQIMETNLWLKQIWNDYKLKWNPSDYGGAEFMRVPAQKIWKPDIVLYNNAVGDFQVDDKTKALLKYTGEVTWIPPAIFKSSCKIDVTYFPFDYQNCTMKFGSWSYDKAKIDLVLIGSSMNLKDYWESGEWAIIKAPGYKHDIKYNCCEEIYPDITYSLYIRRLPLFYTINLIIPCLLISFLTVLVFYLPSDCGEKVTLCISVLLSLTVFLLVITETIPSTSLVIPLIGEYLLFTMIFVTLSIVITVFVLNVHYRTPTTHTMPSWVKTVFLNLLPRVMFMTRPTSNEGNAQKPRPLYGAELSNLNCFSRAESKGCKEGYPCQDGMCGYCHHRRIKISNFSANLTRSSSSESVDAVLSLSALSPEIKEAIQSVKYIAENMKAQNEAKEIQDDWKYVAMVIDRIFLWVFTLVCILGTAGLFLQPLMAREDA

As a reminder, the Cmax is the highest concentration seen after dosing. `CC[C@H]1OC(=O)[C@H](C)[C@@H](O[C@H]2C[C@@](C)(OC)[C@@H](O)[C@H](C)O2)[C@H](C)[C@@H](O[C@@H]2O[C@H](C)C[C@H](N(C)C)[C@H]2O)[C@](C)(O)C[C@@H](C)CN(C)[C@H](C)[C@@H](O)[C@]1(C)O` [AZITHROMYCIN]: in the data set with Haemophilus influenzae, the MIC is 0.25 µg/mL (≈ 0.334 µM). Besides, the Cmax in data set [1] lay within 350 to 450 µg/mL. Also, in [2], the half-life was 48 to 96 h.
As to `CC[C@H]1OC(=O)[C@H](C)C(=O)[C@H](C)[C@@H](O[C@@H]2O[C@H](C)C[C@H](N(C)C)[C@H]2O)[C@](C)(OCC=Cc2cnc3ccccc3c2)C[C@@H](C)C(=O)[C@H](C)[C@H]2NC(=O)O[C@@]21C` [CETHROMYCIN], the fraction unbound in data set [3] is < 0.04.
Turning to `CC[C@H]1OC(=O)[C@H](C)[C@@H](O[C@H]2C[C@@](C)(OC)[C@@H](O)[C@H](C)O2)[C@H](C)[C@@H](O[C@@H]2O[C@H](C)C[C@H](N(C)C)[C@H]2O)[C@](C)(OC)C[C@@H](C)C(=O)[C@H](C)[C@@H](O)[C@]1(C)O` [CLARITHROMYCIN], the highest level in data set [4] (Cmax) was 2.5 µg/mL.
`CC[C@H]1OC(=O)[C@H](C)[C@@H](O[C@H]2C[C@@](C)(OC)[C@@H](O)[C@H](C)O2)[C@H](C)[C@@H](O[C@@H]2O[C@H](C)C[C@H](N(C)C)[C@H]2O)[C@](C)(O)C[C@@H](C)C(=O)[C@H](C)[C@@H](O)[C@]1(C)O` [ERYTHROMYCIN] registered an MIC against Haemophilus influenzae of 0.5 to 2 µg/mL (≈ 0.681 to 2.73 µM).
For orientation: IC50 means the concentration at which inhibition is half-maximal. In general, EC50 refers to the concentration giving half of the maximal effect. With `CC[C@H]1OC(=O)[C@H](C)C(=O)[C@H](C)[C@@H](O[C@@H]2O[C@H](C)C[C@H](N(C)C)[C@H]2O)[C@](C)(OC)C[C@@H](C)C(=O)[C@H](C)[C@H]2N(CCCCn3cnc(-c4cccnc4)c3)C(=O)O[C@]12C` [TELITHROMYCIN], the MIC came to 0.06 µg/mL (≈ 0.0739 µM) in the data set on Streptococcus pneumoniae [5] and 0.25 µg/mL (≈ 0.308 µM) against Streptococcus pneumoniae [6]. Moreover, the IC50 in data set [7] was 3.5 µM. In addition, the 50% effective concentration (EC50) in data set [8] was found to be 132 µM.
